According to patent publication US20140081017A1, “Histone Deacetylase Inhibitors for Enhancing Activity of Antifungal Agents” (METHYLGENE INC., priority 2012, published 2014):
In brackets after ≈: the same amount, converted by molar mass. Read-outs that look alike come from different tables or passages of the source.

Key:
Candida parapsilosis = assay: Minimal Inhibitory Concentration (MIC) assay, broth microdilution per CLSI; type: cell-based; conditions: Lodderomyces parapsilosis, read-out: Minimum Inhibitory Concentrations against Yeast Isolates, Candida parapsilosis;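 note: two read times 24 hr and 48 hr of incubation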
Procedure, shortened: (§1)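 Yeast isolates were grown overnight at 35° C on Sabouraud dextrose agar, adjusted to 0.5 McFarland in saline and diluted 1:100 in RPMI buffered with 0.165 M MOPS, pH 7.0. Compounds in DMSO were serially diluted 1:1. After 24-48 hr at 35° C, MIC was the lowest concentration inhibiting visible growth.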

Candida albicans = assay: as above; type: cell-based; conditions: Candida albicans, read-out: Minimum Inhibitory Concentrations against Yeast Isolates, Candida albicans;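 note: two read times 24 hr and 48 hr of incubation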
Procedure, shortened: as §1

Candida glabrata = assay: as above; type: cell-based; conditions: Nakaseomyces glabratus, read-out: Minimum Inhibitory Concentrations against Yeast Isolates, Candida glabrata;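 note: two read times 24 hr and 48 hr of incubation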
Procedure, shortened: as §1

C. glabrata = assay: Checkerboard FIC assay in combination with fluconazole (MIC alone and in combination, FICI); type: cell-based, Candida glabrata; conditions: for FICI of combination resulting in fluconazole MIC of: 2 ug/mL / FICI of combination resulting in fluconazole MIC of: 4 ug/mL / FICI of combination resulting in fluconazole MIC of: 8 ug/mL: FICI calculated using a fluconazole MIC of 16 μg/mL; for FICI of combination resulting in fluconazole MIC of: 2 ug/mL (value in parenthesis) / FICI of combination resulting in fluconazole MIC of: 4 ug/mL (value in parenthesis) / FICI of combination resulting in fluconazole MIC of: 8 ug/mL (value in parenthesis): FICI using a fluconazole MIC of 128 μg/mL; for MIC: Nakaseomyces glabratus; for Multiple of compound MIC to synergize fluconazole MIC to 2 ug/mL / Multiple of compound MIC to synergize fluconazole MIC to 4 ug/mL / Multiple of compound MIC to synergize fluconazole MIC to 8 ug/mL: concentration in combination as multiple of the compound's MIC alone; for Multiple of compound MIC to synergize fluconazole MIC to 2 ug/mL: fluconazole MIC 2 ug/mL; for Multiple of compound MIC to synergize fluconazole MIC to 4 ug/mL: fluconazole MIC 4 ug/mL; for Multiple of compound MIC to synergize fluconazole MIC to 8 ug/mL: fluconazole MIC 8 ug/mL; for Concentration of Methylgene compound to synergize fluconazole MIC to 2 ug/mL / Concentration of Methylgene compound to synergize fluconazole MIC to 4 ug/mL / Concentration of Methylgene compound to synergize fluconazole MIC to 8 ug/mL: in combination with fluconazole; for Concentration of Methylgene compound to synergize fluconazole MIC to 2 ug/mL: fluconazole MIC lowered to 2 ug/mL; for Concentration of Methylgene compound to synergize fluconazole MIC to 4 ug/mL: fluconazole MIC lowered to 4 ug/mL; for Concentration of Methylgene compound to synergize fluconazole MIC to 8 ug/mL: fluconazole MIC lowered to 8 ug/mL
Procedure, shortened: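 A fluconazole synergy checkerboard was run against C. glabrata in MOPS-buffered RPMI (pH 7.0) for about 48 h at 35 °C. Each agent was diluted 2-fold, with one row and one column holding each agent alone for MIC determination. FICI was calculated from these MICs, using a 0.5 McFarland inoculum diluted 1:100 per CLSI.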

[1] = 24 hr reading (first value of cell 24 hr/48 hr)
[2] = 48 hr reading (second value of cell 24 hr/48 hr)
[3] = MIC of the example compound alone against C. glabrata in the checkerboard assay, approximately 48 hr, read-out: Methylgene MIC
[4] = test compound alone, C. glabrata, approx. 48 hr at 35° C., read-out: Compound MIC

SMILES	MIC (Candida parapsilosis; [1])	MIC (Candida parapsilosis; [2])	MIC (Candida albicans; [1])	MIC (Candida albicans; [2])	MIC (Candida glabrata; [1])	MIC (Candida glabrata; [2])	FICI of combination resulting in fluconazole MIC of: 2 ug/mL (C. glabrata; C. glabrata)	FICI of combination resulting in fluconazole MIC of: 4 ug/mL (C. glabrata; C. glabrata)	FICI of combination resulting in fluconazole MIC of: 8 ug/mL (C. glabrata; C. glabrata)	FICI of combination resulting in fluconazole MIC of: 2 ug/mL (value in parenthesis) (C. glabrata; C. glabrata)	FICI of combination resulting in fluconazole MIC of: 4 ug/mL (value in parenthesis) (C. glabrata; C. glabrata)	FICI of combination resulting in fluconazole MIC of: 8 ug/mL (value in parenthesis) (C. glabrata; C. glabrata)	MIC (C. glabrata; [3])	MIC (C. glabrata; [4])	Multiple of compound MIC to synergize fluconazole MIC to 2 ug/mL (C. glabrata)	Multiple of compound MIC to synergize fluconazole MIC to 4 ug/mL (C. glabrata)	Multiple of compound MIC to synergize fluconazole MIC to 8 ug/mL (C. glabrata)	Concentration of Methylgene compound to synergize fluconazole MIC to 2 ug/mL (C. glabrata; C. glabrata)	Concentration of Methylgene compound to synergize fluconazole MIC to 4 ug/mL (C. glabrata; C. glabrata)	Concentration of Methylgene compound to synergize fluconazole MIC to 8 ug/mL (C. glabrata; C. glabrata)
O=C(Cc1ccc(CCCC(=O)c2ccccc2)cc1)NO [Example 28, N-hydroxy-2-(4-(4-oxo-4-phenylbutyl)phenyl)acetamide]	> 32 µg/mL	> 32 µg/mL	32 µg/mL (≈ 108 µM)	32 µg/mL (≈ 108 µM)	8 µg/mL (≈ 26.9 µM)	16 µg/mL (≈ 53.8 µM)	0.313	0.250	0.313	0.266	0.156	0.125	16 µg/mL	16 µg/mL	(¼x)	(⅛x)	( 1/16x)	4 µg/mL	2 µg/mL	1 µg/mL
O=C(Cc1ccc(CCCC(F)(F)c2ccccc2)cc1)NO [Example 29, 2-(4-(4,4-difluoro-4-phenylbutyl)phenyl)-N-hydroxyacetamide]	1 µg/mL (≈ 3.13 µM)	2 µg/mL (≈ 6.26 µM)	1 µg/mL (≈ 3.13 µM)	2 µg/mL (≈ 6.26 µM)	0.5 µg/mL (≈ 1.57 µM)	1 µg/mL (≈ 3.13 µM)	0.563	0.625	0.500	0.516	0.531	0.313	1 µg/mL	1 µg/mL	(½x)	(½x)	(¼x)	0.5 µg/mL	0.5 µg/mL	0.25 µg/mL
CC(CCCc1ccc(CC(=O)NO)cc1)c1ccccc1 (stereo not shown) [Example 30, N-hydroxy-2-(4-(4-phenylpentyl)phenyl)acetamide]	0.12 µg/mL (≈ 0.403 µM)	0.25 µg/mL (≈ 0.841 µM)	0.5 µg/mL (≈ 1.68 µM)	0.5 µg/mL (≈ 1.68 µM)	0.25 µg/mL (≈ 0.841 µM)	0.5 µg/mL (≈ 1.68 µM)	0.563	0.365	0.490	0.516	0.271	0.303	0.5 µg/mL	0.5 µg/mL	(½x)	(¼x)	(¼x)	0.25 µg/mL	0.12 µg/mL	0.12 µg/mL
Nc1ccc(CCCCc2ccc(CC(=O)NO)cc2)cc1 [Example 31, 2-(4-(4-(4-aminophenyl)butyl)phenyl)-N-hydroxyacetamide]	> 16 µg/mL	> 16 µg/mL	> 16 µg/mL	> 16 µg/mL	> 8 µg/mL	> 8 µg/mL	0.375	0.500	0.625	0.266	0.281	0.188	4 µg/mL	4 µg/mL	(¼x)	(¼x)	(⅛x)	1 µg/mL	1 µg/mL	0.5 µg/mL

Continued, values first:

MIC (Candida parapsilosis; [1])	MIC (Candida parapsilosis; [2])	MIC (Candida albicans; [1])	MIC (Candida albicans; [2])	MIC (Candida glabrata; [1])	MIC (Candida glabrata; [2])	FICI of combination resulting in fluconazole MIC of: 2 ug/mL (C. glabrata; C. glabrata)	FICI of combination resulting in fluconazole MIC of: 4 ug/mL (C. glabrata; C. glabrata)	FICI of combination resulting in fluconazole MIC of: 8 ug/mL (C. glabrata; C. glabrata)	FICI of combination resulting in fluconazole MIC of: 2 ug/mL (value in parenthesis) (C. glabrata; C. glabrata)	FICI of combination resulting in fluconazole MIC of: 4 ug/mL (value in parenthesis) (C. glabrata; C. glabrata)	FICI of combination resulting in fluconazole MIC of: 8 ug/mL (value in parenthesis) (C. glabrata; C. glabrata)	MIC (C. glabrata; [3])	MIC (C. glabrata; [4])	Multiple of compound MIC to synergize fluconazole MIC to 2 ug/mL (C. glabrata)	Multiple of compound MIC to synergize fluconazole MIC to 4 ug/mL (C. glabrata)	Multiple of compound MIC to synergize fluconazole MIC to 8 ug/mL (C. glabrata)	Concentration of Methylgene compound to synergize fluconazole MIC to 2 ug/mL (C. glabrata; C. glabrata)	Concentration of Methylgene compound to synergize fluconazole MIC to 4 ug/mL (C. glabrata; C. glabrata)	Concentration of Methylgene compound to synergize fluconazole MIC to 8 ug/mL (C. glabrata; C. glabrata)	SMILES
32 µg/mL (≈ 107 µM)	32 µg/mL (≈ 107 µM)	32 µg/mL (≈ 107 µM)	32 µg/mL (≈ 107 µM)	> 32 µg/mL	> 32 µg/mL	0.625	0.500	0.625	0.516	0.281	0.188	2 µg/mL	2 µg/mL	(½x)	(¼x)	(⅛x)	1 µg/mL	0.5 µg/mL	0.25 µg/mL	Nc1cccc(CCCCc2ccc(CC(=O)NO)cc2)c1 [Example 32, 2-(4-(4-(3-aminophenyl)butyl)phenyl)-N-hydroxyacetamide]
8 µg/mL (≈ 26.8 µM)	16 µg/mL (≈ 53.6 µM)	8 µg/mL (≈ 26.8 µM)	16 µg/mL (≈ 53.6 µM)	4 µg/mL (≈ 13.4 µM)	8 µg/mL (≈ 26.8 µM)	0.313	0.375	0.500	0.266	0.281	0.313	8 µg/mL	8 µg/mL	(¼x)	(¼x)	(¼x)	2 µg/mL	2 µg/mL	2 µg/mL	Nc1ccccc1CCCCc1ccc(CC(=O)NO)cc1 [Example 33, 2-(4-(4-(2-aminophenyl)butyl)phenyl)-N-hydroxyacetamide]
> 64 µg/mL	> 64 µg/mL	> 64 µg/mL	> 64 µg/mL	> 64 µg/mL	> 64 µg/mL	0.375	0.375	0.625	0.266	0.156	0.188	8 µg/mL	8 µg/mL	(¼x)	(⅛x)	(⅛x)	2 µg/mL	1 µg/mL	1 µg/mL	CN1CCC(C(=O)Nc2ccc(CCCCc3ccc(CC(=O)NO)cc3)cc2)CC1.Cl [Example 34, N-(4-(4-(4-(2-(hydroxyamino)-2-oxoethyl)phenyl)butyl)phenyl)-1-methylpiperidine-4-carboxamide hydrochloride]
64 µg/mL (≈ 140 µM)	64 µg/mL (≈ 140 µM)	64 µg/mL (≈ 140 µM)	64 µg/mL (≈ 140 µM)	64 µg/mL (≈ 140 µM)	> 64 µg/mL	0.375	0.500	0.625	0.266	0.281	0.188	4 µg/mL	4 µg/mL	(¼x)	(¼x)	(⅛x)	1 µg/mL	1 µg/mL	0.5 µg/mL	COCCOCCOCC(=O)Nc1ccc(CCCCc2ccc(CC(=O)NO)cc2)cc1 [Example 35, N-hydroxy-2-(4-(4-(4-(2-(2-(2-methoxyethoxy)ethoxy)acetamido)phenyl)butyl)phenyl)acetamide]
